Molecular target: T1, mouse Tas2r108 (Mus musculus, UniProt Q9JKT3)
T1 construct: expressed in transfected cells; host or cells: HEK293T-Gα16gust44
T1 sequence (Q9JKT3 1-297): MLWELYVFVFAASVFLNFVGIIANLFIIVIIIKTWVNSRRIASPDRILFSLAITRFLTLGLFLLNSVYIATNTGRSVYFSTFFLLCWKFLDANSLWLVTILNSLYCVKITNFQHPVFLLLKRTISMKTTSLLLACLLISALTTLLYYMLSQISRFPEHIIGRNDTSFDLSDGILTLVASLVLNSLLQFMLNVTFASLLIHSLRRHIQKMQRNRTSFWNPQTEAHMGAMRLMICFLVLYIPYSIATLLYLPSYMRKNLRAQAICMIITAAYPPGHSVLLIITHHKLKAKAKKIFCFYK
Test: Calcium imaging assay (FLIPR), HEK293T-Gα16gust44 cells transfected with mouse Tas2r108
Type: cell-based
Conditions: for Δ F/F: Tas2r108
Experimental: This set of bile acids was chosen because of their commercial availability in high purities, their diversity within the class of bile acids and their previous detection and quantitation in human blood. Stock solutions were prepared in DMSO.
As basal growth medium for the HEK293T-Gα16gust44 cell line[17],[59] served Dulbecco’s modified eagle medium (DMEM) (Thermo Fisher Scientific, Darmstadt, Germany) supplemented with 10 % fetal bovine serum (Sigma-Aldrich, Steinheim, Germany), 2 mM L-glutamine (Sigma-Aldrich, Steinheim, Germany), 100 units/ml penicillin (Sigma Aldrich, Steinheim, Germany) and 100 µg/ml streptomycin (Sigma Aldrich, Steinheim, Germany). Growth conditions were 37 °C, 5 % CO2 and saturated air-humidity[60].
HEK293T-Gα16gust44 cells were seeded on poly-D-lysine (10 µg/ml) coated 96-well plates to reach a confluence of 40-60 % the next day. For transient transfection 150 ng of plasmid DNA containing the receptor of interest and 0.3 µl lipofectamine 2000 (Thermo Fisher Scientific, Darmstadt, Germany) per well were used and transfection took place according to the manual of lipofectamine 2000. […] The empty vector DNA (mock) was transfected as negative control[14],[41].
Cells were loaded using the calcium-sensitive fluorescent dye Fluo-4-AM (Abcam, Cambridge, Great Britain) in the presence of 2.5 mM probenecid (Sigma-Aldrich, Steinheim, Germany) the day after transfection[13],[41]. 1 h after loading, cells were washed with C1 buffer using a BioTek Cell Washer, incubated in the dark for half an hour and washed again. For automated agonist application and measurement of fluorescence changes, a FLIPR^TETRA device (Molecular Devices, San José, United States) was used. Viability of cells was tested by application of 100 nM Somatostatin 14 (Bachem, Bubendorf, Switzerland)[42].
Measured data were negative control corrected by subtracting the signal of the mock-transfected cells and exported to Microsoft Excel using the FLIPR software ScreenWorks 4.2. In Microsoft Excel software, standardization of maximum fluorescence intensities to the basal fluorescence and normalization to the buffer-only control was done to calculate the relative fluorescence changes (ΔF/F).
Initial screening experiments performed in duplicate wells were confirmed by at least one replication and representative traces were selected for display. All dose-response relationships were determined by three independent experiments (biological replicates) performed in duplicates (technical replicates). Threshold concentrations, defined as lowest substance concentrations leading to statistically significant elevated fluorescence changes in receptor-transfected cells compared with empty vector-transfected cells, were determined using SigmaPlot with Student’s t-test to evaluate statistical significance (p < 0.01).

SMILES: C[C@H](CCC(=O)NCCS(=O)(=O)O)[C@H]1CC[C@H]2[C@@H]3[C@H](O)C[C@@H]4C[C@H](O)CC[C@]4(C)[C@H]3C[C@H](O)[C@]12C [Taurocholic Acid, taurocholic acid]
- Δ F/F (conc. 0,01 mM): 0.0164
- Δ F/F (conc. 0,1 mM): 0.02829
- Δ F/F (conc. 0,03 mM): 0.01249
- Δ F/F (conc. 0,3 mM): 0.06351
- Δ F/F (conc. 0,001 mM): 0.009911
- Δ F/F (conc. 1 mM): 0.1676
- Δ F/F (conc. 0,003 mM): 0.0148
- RLU (Time 0 s): 0 RLU
- RLU (Time 2 s): -20.2593 RLU
- RLU (Time 4 s): -40.462 RLU
- RLU (Time 6 s): -30.0161 RLU
- RLU (Time 8 s): -12.374 RLU
- RLU (Time 12 s): -13.3496 RLU
- RLU (Time 14 s): -6.544 RLU
- RLU (Time 16 s): -15.3343 RLU
- RLU (Time 18 s): -11.3649 RLU
- RLU (Time 18.781 s): 0.4416 RLU
- RLU (Time 20.781 s): -36.0442 RLU
- RLU (Time 22.781 s): -43.651 RLU
- RLU (Time 24.781 s): -41.1365 RLU
- RLU (Time 26.781 s): -18.6 RLU
- RLU (Time 28.781 s): 11.2728 RLU
- RLU (Time 30.781 s): 33.5132 RLU
- RLU (Time 32.781 s): 71 RLU
- RLU (Time 34.781 s): 95.3158 RLU
- RLU (Time 36.781 s): 97.2719 RLU
- RLU (Time 38.781 s): 144.173 RLU
- RLU (Time 40.781 s): 134.881 RLU
- RLU (Time 42.781 s): 146.815 RLU
- RLU (Time 44.781 s): 188.478 RLU
- RLU (Time 46.781 s): 187.465 RLU
- RLU (Time 48.781 s): 214.327 RLU
- RLU (Time 50.781 s): 211.162 RLU
- RLU (Time 52.781 s): 236.861 RLU
- RLU (Time 54.781 s): 237.067 RLU
- RLU (Time 56.781 s): 230.295 RLU
- RLU (Time 58.781 s): 253.142 RLU
- RLU (Time 60.781 s): 220.824 RLU
- RLU (Time 62.781 s): 245.001 RLU
- RLU (Time 64.781 s): 248.53 RLU
- RLU (Time 66.781 s): 284.462 RLU
- RLU (Time 68.781 s): 254.576 RLU
- RLU (Time 70.781 s): 279.831 RLU
- RLU (Time 72.781 s): 269.677 RLU
- RLU (Time 74.781 s): 263.013 RLU
- RLU (Time 76.781 s): 268.161 RLU
- RLU (Time 78.781 s): 271.517 RLU
- RLU (Time 80.781 s): 261.286 RLU
- RLU (Time 82.781 s): 284.591 RLU
- RLU (Time 84.781 s): 263.187 RLU
- RLU (Time 86.781 s): 264.054 RLU
- RLU (Time 88.781 s): 257.931 RLU
- RLU (Time 90.781 s): 266.719 RLU
- RLU (Time 92.781 s): 280.373 RLU
- RLU (Time 94.781 s): 260.776 RLU
- RLU (Time 96.781 s): 264.943 RLU
- RLU (Time 98.781 s): 262.119 RLU
- RLU (Time 100.781 s): 242.991 RLU
- RLU (Time 102.781 s): 248.884 RLU
- RLU (Time 104.781 s): 234.786 RLU
- RLU (Time 106.781 s): 246.521 RLU
- RLU (Time 108.781 s): 245.379 RLU
- RLU (Time 110.781 s): 221.773 RLU
- RLU (Time 112.781 s): 255.593 RLU
- RLU (Time 114.781 s): 236.786 RLU
- RLU (Time 116.781 s): 246.038 RLU
- RLU (Time 118.781 s): 236.543 RLU
- RLU (Time 120.781 s): 242.472 RLU
- RLU (Time 122.781 s): 225.877 RLU
- RLU (Time 124.781 s): 231.718 RLU
- RLU (Time 126.781 s): 218.383 RLU
- RLU (Time 128.781 s): 219.672 RLU
- RLU (Time 130.781 s): 215.513 RLU
- RLU (Time 132.781 s): 219.132 RLU
- RLU (Time 134.781 s): 219.383 RLU
- RLU (Time 136.781 s): 199.62 RLU
- RLU (Time 137.562 s): 222.887 RLU
- RLU (Time 143.562 s): 216.156 RLU
- RLU (Time 149.562 s): 209.286 RLU
- RLU (Time 155.562 s): 217.366 RLU
- RLU (Time 161.562 s): 220.781 RLU
- RLU (Time 167.562 s): 219.02 RLU
- RLU (Time 173.562 s): 233.427 RLU
- RLU (Time 179.562 s): 239.06 RLU
- RLU (Time 185.562 s): 225.962 RLU
- RLU (Time 191.562 s): 229.727 RLU
- RLU (Time 197.562 s): 239.899 RLU
- RLU (Time 203.562 s): 214.938 RLU
- RLU (Time 209.562 s): 251.411 RLU
- RLU (Time 215.562 s): 226.847 RLU
- RLU (Time 221.562 s): 216.644 RLU
- RLU (Time 227.562 s): 259.359 RLU
- RLU (Time 233.562 s): 219.243 RLU
- RLU (Time 239.562 s): 236.142 RLU
- RLU (Time 245.562 s): 237.626 RLU
- RLU (Time 293.562 s): 221.03 RLU
- RLU (Time 299.562 s): 234.317 RLU
- RLU (Time 305.562 s): 241.837 RLU
- RLU (Time 311.562 s): 254.495 RLU
- RLU (Time 317.562 s): 265.787 RLU
- RLU (Time 323.562 s): 251.038 RLU
- RLU (Time 329.562 s): 233.221 RLU
- RLU (Time 335.562 s): 247.117 RLU
- RLU (Time 341.562 s): 273.956 RLU
- RLU (Time 347.562 s): 268.956 RLU
- RLU (Time 353.562 s): 264.083 RLU
- RLU (Time 359.562 s): 275.281 RLU
- Activation threshold concentration Tas2r108 (p < 0.01 vs empty vector): 100 µM
